Test results reported in patent US20200377568A1, “Novel IL-4-/IL-13-derived peptide compounds for the treatment or prevention of neurodegenerative or neuroinflammatory diseases” (Universitätsmedizin der Johannes Gutenberg-Universität Mainz, priority 2018, published 2020).

How the values were obtained:
[1] = tested on: mouse embryonic fibroblasts (Mef); assay: CellTiter-blue cell viability assay (ctb), fibroblasts; type: cell-based; conditions: Mef cells, increasing concentrations, FIG. 2A
Procedure: Toxicity was checked by subjecting mouse embryonic fibroblasts (Mef) and the hippocampal cell line HT22 to a CellTiter-blue cell viability assay (ctb).
Mouse embryonic fibroblasts (Mef) (Sigma-Aldrich) and hippocampal HT22 (ThermoScientific) cells were cultured according to the manufacturer's protocols. Ctb assays were performed according to the manufacturer's protocols (Promega).

[2] = tested on: CD11b+ bone marrow-derived macrophages (BMDMs); assay: Differentiation of bone marrow-derived macrophages; type: cell-based, mouse; conditions: different concentrations, FIG. 4A
Procedure: (§1) A-B: Effects of incubation with IL-4 and different concentrations of Link4 and Link13 on the differentiation of A: CD11b^+ bone marrow-derived macrophages (BMDMs) into F80^+CD206^+ cells, and B: CD4^+ T cells into Gata3^+ cells. C-D: FACS results for different populations of T cells and CD11b^+MHCII^+ monocytes/macrophages/microglia of immune cells isolated from C: spleen and D: central nervous system (CNS) of EAE mice treated with PBS, IL-4 or Link4.
In order to investigate whether Link4 and Link13 are able to modulate immune cells, in vitro assays were performed on bone marrow-derived macrophages (BDMBs) and on naïve T cells.
Murine BMDMs were isolated from adult C57BL/6 mice. The tibia and femur bones were flushed with sterile PBS and the bone marrow was collected in washing medium. After filtering the cell suspension trough a 100 μm nylon mesh, the cells were centrifuged (5 min, 550 g, 4° C.) and resuspended in mouse medium (10% FCS, 1% P/S, 1% L-glutamine, 0.1% β-mercaptoethanol, 1% HEPES in RPMI buffer). For the in vitro generation of BMDMs cells were plated in 6 well-plates and exposed to 20 ng/ml Macrophage […] (M-CSF) for 4 days. For the activation of the cells, Dexametason (5×10^−7M), LPS (10 μg/ml) and IL-4 (10 ng/ml) were added to the culture for the following 3 days.

[3] = tested on: immune cells isolated from spleen; assay: FACS of immune cells from spleen of EAE mice after nasal treatment; type: in vivo, mouse; conditions: intranasal treatment of EAE mice
Procedure: as §1
Subsequently, the effects of IL-4 and Link4 on immune cells were analysed when applied intranasally, similarly as in FIG. 3B. Since nasally applied treatments can enter the periphery (lungs, blood stream) it was of utmost importance to check whether the substances affected the lymphocyte populations in the spleen. A reduction was found of CD8^+ cytotoxic T-cells for Link4, whereas all CD4^+ T helper cell types were unchanged. The CD11 b+MHCII+ population of monocytes/macrophages was also not changed.
CNS and spleens were removed from EAE mice treated with nasal IL-4, Link4 or PBS at d35 and immune cells were isolated as previously described (M. Paterka, J. O. Voss, J. Werr, E. Reuter, S. Franck, T. Leuenberger, J. Herz, H. Radbruch, T. Bopp, V. Siffrin, and F. Zipp, Dendritic cells tip the balance towards induction of regulatory T cells upon priming in experimental autoimmune encephalomyelitis. J Autoimmun 67, 108-114 (2017)). For in vitro stimulation of T cells, anti-CD3 (145-2C11) and anti-CD28 (37.51) were used. The following antibodies were used for flow cytometry with the BD FACSCanto II (BD Bioscience): anti-CD4 PEcγ7 (RM4-5), anti-CD8 FITC (53-6.7), anti-CD3APC (145-2c11), anti-CD11 b bio (M1/70), anti-MHCII PE (AF6-120.1), anti-CD11 b V450 (HL311B), anti-CD45 AF605 (30-F11), anti-GM-CSF PE (MP1-22E9), anti-IL17 APC (eBio17B7), anti-TNFα AF700 (MP6-XT22), anti-IFN-γV450 (XMG1.2), anti-GATA-3 PE (TWAZ), anti-FOXP3 PEcy7(FZK-16s), anti-IL-10 APC (JESS-16E3), anti-CD4 V450 (RM4-5). All antibodies were purchased from eBioscience or Biolegend.

[4] = tested on: corticospinal tract axons; assay: Analysis of axon swellings in spinal cords of EAE mice; type: in vivo, mouse; conditions: EAE mice treated during the chronic phase, FIG. 7A
Procedure: A: Histological analysis of corticospinal tract axons in spinal cords of EAE mice treated during the chronic phase of the disease.
EAE experiments were performed by immunizing YFP-H mice, that express yellow fluorescent protein in corticospinal neurons, with MOG35-55. Mice were treated with IL-4 or PBS as described above. At the last treatment day, the mice were sacrificed with an overdose of anaesthesia and transcardially perfused with 4% paraformaldehyde. Spinal cords were dissected and further processed for cryosectioning. YFP-labelled corticospinal tract axons were photographed using the Keyence BZ-9000 microscope. For quantification of axon swellings, thresholds were set in ImageJ so that stained pixels were highlighted. Thresholded swellings were counted using the ImageJ plug-in “particle analysis”.

With “RARSEIIGIGSKSIMQMDY (listed as Mus musculus) [Link4]” the “toxic effects on fibroblasts (cell viability)” value [1] was “no toxic effects”, the “differentiation of CD11b+ BMDMs into F80+CD206+ cells” value [2] was “did not occur” and the “CD4+ T helper cell types” value [3] was “unchanged”. The “CD8+ cytotoxic T-cells” value [3] was “reduction”, the “CD11b+MHCII+ population of monocytes/macrophages” value [3] was “not changed” and the “number of axon swellings” value [4] was “significantly reduced”.
